According to ChEMBL document CHEMBL1201862, “PubChem BioAssay data set” (2004):
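Values below derive from 48-hour exposures of cells grown in 96-well plates, with endpoints linearly interpolated between the two concentrations bracketing the appropriate inhibition level. GI50: concentration for 50% inhibition of growth.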 Activity calls are given as the source filed them. No stated cut-off is given here; in the data, active = GI50 up to about 1.1 µM and inactive = higher.

Tests used:
Assay in all cases: NCI-60 cell line screen, 48 h
HT-29 = system: HT-29
OVCAR-4 = system: OVCAR-4
SK-OV-3 = system: SK-OV-3
NCI-H522 = system: NCI-H522
COLO 205 = system: COLO 205
Malme-3M = system: Malme-3M
HCT-116 = system: HCT-116
NCI-H23 = system: NCI-H23
DU-145 = system: DU-145
A498 = system: A498
SN12C = system: SN12C
CAKI-1 = system: CAKI-1
HCT-15 = system: HCT-15
HL-60 = system: HL-60
SNB-19 = system: SNB-19
PC-3 = system: PC-3
Hs-578T = system: Hs-578T
HCC 2998 = system: HCC 2998
RXF 393 = system: RXF 393
OVCAR-5 = system: OVCAR-5
SW-620 = system: SW-620
NCI/ADR-RES = system: NCI/ADR-RES
BT-549 = system: BT-549
SF-268 = system: SF-268
MDA-N = system: MDA-N
SK-MEL-28 = system: SK-MEL-28
LOX IMVI = system: LOX IMVI
NCI-H226 = system: NCI-H226
UACC-62 = system: UACC-62
NCI-H460 = system: NCI-H460
U-251 = system: U-251
K562 = system: K562
T47D = system: T47D
M14 = system: M14
SK-MEL-5 = system: SK-MEL-5
SNB-75 = system: SNB-75
786-0 = system: 786-0
RPMI-8226 = system: RPMI-8226
UO-31 = system: UO-31
MCF7 = system: MCF7
SR = system: SR
SK-MEL-2 = system: SK-MEL-2
MOLT-4 = system: MOLT-4
UACC-257 = system: UACC-257
CCRF-CEM = system: CCRF-CEM
TK-10 = system: TK-10
MDA-MB-435 = system: MDA-MB-435
OVCAR-8 = system: OVCAR-8
A549 = system: A549
EKVX = system: EKVX
MDA-MB-231 = system: MDA-MB-231
KM12 = system: KM12
OVCAR-3 = system: OVCAR-3
SF-539 = system: SF-539
HOP-62 = system: HOP-62
ACHN = system: ACHN
HOP-92 = system: HOP-92
IGROV-1 = system: IGROV-1
SF-295 = system: SF-295

CCOC(=O)NNC(=O)NCc1cccc(CNC(=O)NNC(=O)OCC)c1
GI50 (HT-29): > 100 µM (inactive)
GI50 (OVCAR-4): > 100 µM (inactive)
GI50 (SK-OV-3): > 100 µM (inactive)
GI50 (NCI-H522): > 100 µM (inactive)
GI50 (COLO 205): > 100 µM (inactive)
GI50 (Malme-3M): > 100 µM (inactive)
GI50 (HCT-116): > 100 µM (inactive)
GI50 (NCI-H23): > 100 µM (inactive)
GI50 (DU-145): > 100 µM (inactive)
GI50 (A498): > 100 µM (inactive)
GI50 (SN12C): > 100 µM (inactive)
GI50 (CAKI-1): > 100 µM (inactive)
GI50 (HCT-15): > 100 µM
GI50 (HL-60): > 100 µM (inactive)
GI50 (SNB-19): > 100 µM (inactive)
GI50 (PC-3): > 100 µM (inactive)
GI50 (Hs-578T): > 100 µM (inactive)
GI50 (HCC 2998): > 100 µM (inactive)
GI50 (RXF 393): > 100 µM (inactive)
GI50 (OVCAR-5): > 100 µM (inactive)
GI50 (SW-620): > 100 µM (inactive)
GI50 (NCI/ADR-RES): > 100 µM (inactive)
GI50 (BT-549): > 100 µM (inactive)
GI50 (SF-268): > 100 µM (inactive)
GI50 (MDA-N): > 100 µM (inactive)
GI50 (SK-MEL-28): > 100 µM (inactive)
GI50 (LOX IMVI): > 100 µM (inactive)
GI50 (NCI-H226): > 100 µM (inactive)
GI50 (UACC-62): > 100 µM (inactive)
GI50 (NCI-H460): > 100 µM (inactive)
GI50 (U-251): > 100 µM (inactive)
GI50 (K562): > 100 µM (inactive)
GI50 (T47D): > 100 µM (inactive)
GI50 (M14): > 100 µM (inactive)
GI50 (SK-MEL-5): > 100 µM (inactive)
GI50 (SNB-75): > 100 µM (inactive)
GI50 (786-0): > 100 µM (inactive)
GI50 (RPMI-8226): > 100 µM (inactive)
GI50 (UO-31): > 100 µM (inactive)
GI50 (MCF7): > 100 µM (inactive)
GI50 (SR): > 100 µM (inactive)
GI50 (SK-MEL-2): > 100 µM (inactive)
GI50 (MOLT-4): > 100 µM (inactive)
GI50 (UACC-257): > 100 µM (inactive)
GI50 (CCRF-CEM): > 100 µM (inactive)
GI50 (TK-10): > 100 µM (inactive)
GI50 (MDA-MB-435): > 100 µM (inactive)
GI50 (OVCAR-8): > 100 µM (inactive)
GI50 (A549): > 100 µM (inactive)
GI50 (EKVX): > 100 µM (inactive)
GI50 (MDA-MB-231): > 100 µM (inactive)
GI50 (KM12): > 100 µM (inactive)
GI50 (OVCAR-3): > 100 µM (inactive)
GI50 (SF-539): > 100 µM (inactive)

OCCCNCc1ccncc1
GI50 (HT-29): > 100 µM (inactive)
GI50 (OVCAR-4): > 100 µM (inactive)
GI50 (SK-OV-3): > 100 µM (inactive)
GI50 (NCI-H522): > 100 µM (inactive)
GI50 (COLO 205): > 100 µM (inactive)
GI50 (HOP-62): > 100 µM (inactive)
GI50 (Malme-3M): > 100 µM (inactive)
GI50 (ACHN): > 100 µM (inactive)
GI50 (HCT-116): > 100 µM (inactive)
GI50 (NCI-H23): > 100 µM (inactive)
GI50 (DU-145): > 100 µM (inactive)
GI50 (A498): > 100 µM (inactive)
GI50 (SN12C): > 100 µM (inactive)
GI50 (CAKI-1): > 100 µM (inactive)
GI50 (HOP-92): > 100 µM (inactive)
GI50 (HCT-15): > 100 µM
GI50 (HL-60): > 100 µM (inactive)
GI50 (SNB-19): > 100 µM (inactive)
GI50 (PC-3): > 100 µM (inactive)
GI50 (Hs-578T): > 100 µM (inactive)
GI50 (RXF 393): > 100 µM (inactive)
GI50 (OVCAR-5): > 100 µM (inactive)
GI50 (SW-620): > 100 µM (inactive)
GI50 (NCI/ADR-RES): > 100 µM (inactive)
GI50 (BT-549): > 100 µM (inactive)
GI50 (SF-268): > 100 µM (inactive)
GI50 (MDA-N): > 100 µM (inactive)
GI50 (SK-MEL-28): > 100 µM (inactive)
GI50 (LOX IMVI): > 100 µM (inactive)
GI50 (NCI-H226): > 100 µM (inactive)
GI50 (UACC-62): > 100 µM (inactive)
GI50 (IGROV-1): > 100 µM (inactive)
GI50 (NCI-H460): > 100 µM (inactive)
GI50 (U-251): > 100 µM (inactive)
GI50 (K562): > 100 µM (inactive)
GI50 (T47D): > 100 µM (inactive)
GI50 (SF-295): > 100 µM (inactive)
GI50 (M14): > 100 µM (inactive)
GI50 (SK-MEL-5): > 100 µM (inactive)
GI50 (SNB-75): > 100 µM (inactive)
GI50 (786-0): > 100 µM (inactive)
GI50 (RPMI-8226): > 100 µM (inactive)
GI50 (UO-31): > 100 µM (inactive)
GI50 (MCF7): > 100 µM (inactive)
GI50 (SR): > 100 µM (inactive)
GI50 (SK-MEL-2): > 100 µM (inactive)
GI50 (MOLT-4): > 100 µM (inactive)
GI50 (CCRF-CEM): > 100 µM (inactive)
GI50 (TK-10): > 100 µM (inactive)
GI50 (MDA-MB-435): > 100 µM (inactive)
GI50 (OVCAR-8): > 100 µM (inactive)
GI50 (A549): > 100 µM (inactive)
GI50 (EKVX): > 100 µM (inactive)
GI50 (MDA-MB-231): > 100 µM (inactive)
GI50 (KM12): > 100 µM (inactive)
GI50 (OVCAR-3): > 100 µM (inactive)
GI50 (SF-539): > 100 µM (inactive)

O=c1cc(CNC2CCCC2)[nH]c(=O)[nH]1
GI50 (HT-29): > 100 µM (inactive)
GI50 (OVCAR-4): > 100 µM (inactive)
GI50 (SK-OV-3): > 100 µM (inactive)
GI50 (NCI-H522): > 100 µM (inactive)
GI50 (COLO 205): > 100 µM (inactive)
GI50 (HOP-62): > 100 µM (inactive)
GI50 (Malme-3M): > 100 µM (inactive)
GI50 (ACHN): > 100 µM (inactive)
GI50 (HCT-116): > 100 µM (inactive)
GI50 (NCI-H23): > 100 µM (inactive)
GI50 (DU-145): > 100 µM (inactive)
GI50 (A498): > 100 µM (inactive)
GI50 (SN12C): > 100 µM (inactive)
GI50 (CAKI-1): > 100 µM (inactive)
GI50 (HCT-15): > 100 µM
GI50 (HL-60): > 100 µM (inactive)
GI50 (SNB-19): > 100 µM (inactive)
GI50 (PC-3): > 100 µM (inactive)
GI50 (Hs-578T): > 100 µM (inactive)
GI50 (HCC 2998): > 100 µM (inactive)
GI50 (RXF 393): > 100 µM (inactive)
GI50 (OVCAR-5): > 100 µM (inactive)
GI50 (SW-620): > 100 µM (inactive)
GI50 (NCI/ADR-RES): > 100 µM (inactive)
GI50 (BT-549): > 100 µM (inactive)
GI50 (SF-268): > 100 µM (inactive)
GI50 (MDA-N): > 100 µM (inactive)
GI50 (SK-MEL-28): > 100 µM (inactive)
GI50 (LOX IMVI): > 100 µM (inactive)
GI50 (UACC-62): > 100 µM (inactive)
GI50 (IGROV-1): > 100 µM (inactive)
GI50 (NCI-H460): > 100 µM (inactive)
GI50 (U-251): > 100 µM (inactive)
GI50 (K562): > 100 µM (inactive)
GI50 (T47D): > 100 µM (inactive)
GI50 (SF-295): > 100 µM (inactive)
GI50 (M14): > 100 µM (inactive)
GI50 (SK-MEL-5): > 100 µM (inactive)
GI50 (SNB-75): > 100 µM (inactive)
GI50 (786-0): > 100 µM (inactive)
GI50 (RPMI-8226): > 100 µM (inactive)
GI50 (UO-31): > 100 µM (inactive)
GI50 (MCF7): > 100 µM (inactive)
GI50 (SR): > 100 µM (inactive)
GI50 (SK-MEL-2): > 100 µM (inactive)
GI50 (MOLT-4): > 100 µM (inactive)
GI50 (UACC-257): > 100 µM (inactive)
GI50 (CCRF-CEM): > 100 µM (inactive)
GI50 (TK-10): > 100 µM (inactive)
GI50 (MDA-MB-435): > 100 µM (inactive)
GI50 (OVCAR-8): > 100 µM (inactive)
GI50 (A549): > 100 µM (inactive)
GI50 (EKVX): > 100 µM (inactive)
GI50 (MDA-MB-231): > 100 µM (inactive)
GI50 (KM12): > 100 µM (inactive)
GI50 (OVCAR-3): > 100 µM (inactive)
GI50 (SF-539): > 100 µM (inactive)
